{"source": "paper PMC8793051", "about": "(ACS Omega, 2022)", "key": {"[1]": {"test_system": "oligo-1: d(CGCGAATTCGCG)2", "assay": "UV thermal denaturation", "format": "binding"}, "[2]": {"test_system": "oligo-1: d(CGCGAATTCGCG)2", "assay": "Fluorescence titration", "format": "binding", "settings": "20 °C, pH 7.2"}, "A549/ATCC": {"test_system": "A549/ATCC", "assay": "NCI-60 SRB growth assay", "format": "cell-based, human"}, "EKVX": {"test_system": "EKVX", "assay": "NCI-60 SRB growth assay", "format": "cell-based, human"}, "HOP-62": {"test_system": "HOP-62", "assay": "NCI-60 SRB growth assay", "format": "cell-based, human"}, "NCI-H522": {"test_system": "NCI-H522", "assay": "NCI-60 SRB growth assay", "format": "cell-based, human"}, "COLO 205": {"test_system": "COLO 205", "assay": "NCI-60 SRB growth assay", "format": "cell-based, human"}, "HCT-116": {"test_system": "HCT-116", "assay": "NCI-60 SRB growth assay", "format": "cell-based, human"}, "KM12": {"test_system": "KM12", "assay": "NCI-60 SRB growth assay", "format": "cell-based, human"}, "SF-539": {"test_system": "SF-539", "assay": "NCI-60 SRB growth assay", "format": "cell-based, human"}, "SNB-75": {"test_system": "SNB-75", "assay": "NCI-60 SRB growth assay", "format": "cell-based, human"}, "SK-MEL-2": {"test_system": "SK-MEL-2", "assay": "NCI-60 SRB growth assay", "format": "cell-based, human", "settings": "SK-MEL-2"}, "UACC-257": {"test_system": "UACC-257", "assay": "NCI-60 SRB growth assay", "format": "cell-based, human"}, "UACC-62": {"test_system": "UACC-62", "assay": "NCI-60 SRB growth assay", "format": "cell-based, human"}, "OVCAR-5": {"test_system": "OVCAR-5", "assay": "NCI-60 SRB growth assay", "format": "cell-based, human"}, "OVCAR-8": {"test_system": "OVCAR-8", "assay": "NCI-60 SRB growth assay", "format": "cell-based, human"}, "A498": {"test_system": "A498", "assay": "NCI-60 SRB growth assay", "format": "cell-based, human"}, "CAKI-1": {"test_system": "CAKI-1", "assay": "NCI-60 SRB growth assay", "format": "cell-based, human"}, "PC-3": {"test_system": "PC-3", "assay": "NCI-60 SRB growth assay", "format": "cell-based, human"}, "DU-145": {"test_system": "DU-145", "assay": "NCI-60 SRB growth assay", "format": "cell-based, human"}, "MCF7": {"test_system": "MCF7", "assay": "NCI-60 SRB growth assay", "format": "cell-based, human"}, "HS 578T": {"test_system": "HS 578T", "assay": "NCI-60 SRB growth assay", "format": "cell-based, human", "settings": "HS578T"}, "BT-549": {"test_system": "BT-549", "assay": "NCI-60 SRB growth assay", "format": "cell-based, human"}, "MDA-MB-468": {"test_system": "MDA-MB-468", "assay": "NCI-60 SRB growth assay", "format": "cell-based, human"}, "Hu Topo I": {"molecular_target": "T1, Hu Topo I (Homo sapiens, UniProt P11387)", "T1 sequence (P11387 1-765)": "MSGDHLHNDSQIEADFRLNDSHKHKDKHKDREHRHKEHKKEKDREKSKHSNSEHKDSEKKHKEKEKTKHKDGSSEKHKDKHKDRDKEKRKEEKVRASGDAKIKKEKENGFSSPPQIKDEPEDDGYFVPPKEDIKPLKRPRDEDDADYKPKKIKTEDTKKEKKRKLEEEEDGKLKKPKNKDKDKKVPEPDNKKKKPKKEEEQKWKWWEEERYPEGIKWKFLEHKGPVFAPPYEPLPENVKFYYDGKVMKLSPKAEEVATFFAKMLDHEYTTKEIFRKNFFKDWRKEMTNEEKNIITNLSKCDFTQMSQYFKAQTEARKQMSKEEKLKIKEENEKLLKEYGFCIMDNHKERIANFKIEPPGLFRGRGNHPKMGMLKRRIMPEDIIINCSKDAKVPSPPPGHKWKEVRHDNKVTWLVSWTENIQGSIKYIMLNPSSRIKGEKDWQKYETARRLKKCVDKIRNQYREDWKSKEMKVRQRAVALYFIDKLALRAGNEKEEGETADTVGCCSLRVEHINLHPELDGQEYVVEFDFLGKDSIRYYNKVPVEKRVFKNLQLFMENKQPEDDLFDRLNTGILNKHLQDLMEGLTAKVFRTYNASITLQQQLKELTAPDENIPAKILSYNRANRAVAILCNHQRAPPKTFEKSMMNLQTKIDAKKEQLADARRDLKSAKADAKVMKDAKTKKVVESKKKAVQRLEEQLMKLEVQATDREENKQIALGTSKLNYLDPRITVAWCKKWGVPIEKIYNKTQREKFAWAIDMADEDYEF", "assay": "Plasmid DNA relaxation assay"}}}
{"compound": "CCCN1CCN(c2ccc3[nH]c(-c4ccc5[nH]c(-c6ccc(OCC)c(OCC)c6)nc5c4)nc3c2)CC1", "note": "[11a, 2-(2-(3,4-Diethoxyphenyl)-1H-benzo[d]imidazol-5-yl)-5-(4-propylpiperazin-1-yl)-1H-benzo[d]imidazole]", "values": [{"measurement": "ΔTm", "setting": "[1]; r = 0.5", "value": 3, "unit": "°C"}, {"measurement": "Tm", "setting": "[1]; r = 0.5, oligo 2.5 μM", "value": 57.7, "unit": "°C"}, {"measurement": "Tm", "setting": "[1]; r = 1", "value": 58.7, "unit": "°C"}, {"measurement": "ΔTm", "setting": "[1]; r = 1", "value": 4, "unit": "°C"}, {"measurement": "Tm", "setting": "[1]; r = 1.5", "value": 60.7, "unit": "°C"}, {"measurement": "ΔTm", "setting": "[1]; r = 1.5", "value": 6, "unit": "°C"}, {"measurement": "Tm", "setting": "[1]; r = 2.0", "value": 62.7, "unit": "°C"}, {"measurement": "ΔTm", "setting": "[1]; r = 2.0", "value": 8, "unit": "°C"}, {"measurement": "Ka binding affinity with oligo-1", "setting": "[2]", "value": "3 × 10^7 M^–1"}, {"measurement": "TGI", "setting": "A549/ATCC; A549/ATCC", "value": 3020, "unit": "nM"}, {"measurement": "GI50", "setting": "A549/ATCC; Homo sapiens, A549", "value": 1170, "unit": "nM"}, {"measurement": "TGI", "setting": "EKVX", "value": 13300, "unit": "nM"}, {"measurement": "GI50", "setting": "EKVX; Homo sapiens", "value": 1730, "unit": "nM"}, {"measurement": "CC50", "setting": "EKVX; Homo sapiens, read-out: LC50", "value": "> 100000", "unit": "nM"}, {"measurement": "TGI", "setting": "HOP-62; HOP-62", "value": 5200, "unit": "nM"}, {"measurement": "GI50", "setting": "HOP-62; Homo sapiens, HOP-62", "value": 1980, "unit": "nM"}, {"measurement": "CC50", "setting": "HOP-62; Homo sapiens, HOP-62, read-out: LC50", "value": 23400, "unit": "nM"}, {"measurement": "GI50", "setting": "NCI-H522; Homo sapiens, NCI-H522", "value": 450, "unit": "nM"}, {"measurement": "TGI", "setting": "NCI-H522; NCI–H522", "value": 2110, "unit": "nM"}, {"measurement": "TGI", "setting": "COLO 205; COLO 205", "value": 1290, "unit": "nM"}, {"measurement": "GI50", "setting": "COLO 205; Homo sapiens, COLO 205", "value": 160, "unit": "nM"}, {"measurement": "CC50", "setting": "COLO 205; Homo sapiens, COLO 205, read-out: LC50", "value": 5400, "unit": "nM"}, {"measurement": "TGI", "setting": "HCT-116; HCT-116", "value": 1230, "unit": "nM"}, {"measurement": "GI50", "setting": "HCT-116; Homo sapiens, HCT-116", "value": 240, "unit": "nM"}, {"measurement": "CC50", "setting": "HCT-116; Homo sapiens, HCT-116, read-out: LC50", "value": 4700, "unit": "nM"}, {"measurement": "GI50", "setting": "KM12; Homo sapiens, KM12", "value": 1260, "unit": "nM"}, {"measurement": "CC50", "setting": "KM12; Homo sapiens, KM12, read-out: LC50", "value": 6400, "unit": "nM"}, {"measurement": "TGI", "setting": "KM12; KM12", "value": 2800, "unit": "nM"}, {"measurement": "GI50", "setting": "SF-539; Homo sapiens, SF-539", "value": 790, "unit": "nM"}, {"measurement": "CC50", "setting": "SF-539; Homo sapiens, SF-539, read-out: LC50", "value": 4800, "unit": "nM"}, {"measurement": "TGI", "setting": "SF-539; SF-539", "value": 2100, "unit": "nM"}, {"measurement": "GI50", "setting": "SNB-75; Homo sapiens, SNB-75", "value": 710, "unit": "nM"}, {"measurement": "CC50", "setting": "SNB-75; Homo sapiens, SNB-75, read-out: LC50", "value": 4300, "unit": "nM"}, {"measurement": "TGI", "setting": "SNB-75; SNB-75", "value": 1900, "unit": "nM"}, {"measurement": "GI50", "setting": "SK-MEL-2; Homo sapiens", "value": 14000, "unit": "nM"}, {"measurement": "TGI", "setting": "SK-MEL-2", "value": 3100, "unit": "nM"}, {"measurement": "GI50", "setting": "UACC-257; Homo sapiens, UACC-257", "value": 790, "unit": "nM"}, {"measurement": "CC50", "setting": "UACC-257; Homo sapiens, UACC-257, read-out: LC50", "value": 9400, "unit": "nM"}, {"measurement": "TGI", "setting": "UACC-257; UACC-257", "value": 2800, "unit": "nM"}, {"measurement": "GI50", "setting": "UACC-62; Homo sapiens, UACC-62", "value": 400, "unit": "nM"}, {"measurement": "CC50", "setting": "UACC-62; Homo sapiens, UACC-62, read-out: LC50", "value": 5300, "unit": "nM"}, {"measurement": "TGI", "setting": "UACC-62; UACC-62", "value": 1900, "unit": "nM"}, {"measurement": "GI50", "setting": "OVCAR-5; Homo sapiens, OVCAR-5", "value": 2090, "unit": "nM"}, {"measurement": "CC50", "setting": "OVCAR-5; Homo sapiens, OVCAR-5, read-out: LC50", "value": 15900, "unit": "nM"}, {"measurement": "TGI", "setting": "OVCAR-5; OVCAR-5", "value": 5010, "unit": "nM"}, {"measurement": "GI50", "setting": "OVCAR-8; Homo sapiens, OVCAR-8", "value": 450, "unit": "nM"}, {"measurement": "CC50", "setting": "OVCAR-8; Homo sapiens, OVCAR-8, read-out: LC50", "value": "> 100000", "unit": "nM"}, {"measurement": "TGI", "setting": "OVCAR-8; OVCAR-8", "value": 2160, "unit": "nM"}, {"measurement": "TGI", "setting": "A498; A498", "value": 1790, "unit": "nM"}, {"measurement": "GI50", "setting": "A498; Homo sapiens, A498", "value": 470, "unit": "nM"}, {"measurement": "CC50", "setting": "A498; Homo sapiens, A498, read-out: LC50", "value": 4380, "unit": "nM"}, {"measurement": "TGI", "setting": "CAKI-1; CAKI-1", "value": 3030, "unit": "nM"}, {"measurement": "GI50", "setting": "CAKI-1; Homo sapiens, CAKI-1", "value": 1040, "unit": "nM"}, {"measurement": "CC50", "setting": "CAKI-1; Homo sapiens, CAKI-1, read-out: LC50", "value": 8800, "unit": "nM"}, {"measurement": "GI50", "setting": "PC-3; Homo sapiens, PC-3", "value": 380, "unit": "nM"}, {"measurement": "CC50", "setting": "PC-3; Homo sapiens, PC-3, read-out: LC50", "value": 6120, "unit": "nM"}, {"measurement": "TGI", "setting": "PC-3; PC-3", "value": 1920, "unit": "nM"}, {"measurement": "TGI", "setting": "DU-145; DU-145", "value": 2020, "unit": "nM"}, {"measurement": "GI50", "setting": "DU-145; Homo sapiens, DU-145", "value": 440, "unit": "nM"}, {"measurement": "CC50", "setting": "DU-145; Homo sapiens, DU-145, read-out: LC50", "value": 12400, "unit": "nM"}, {"measurement": "TGI", "setting": "MCF7", "value": 1530, "unit": "nM"}, {"measurement": "GI50", "setting": "MCF7; Homo sapiens", "value": 350, "unit": "nM"}, {"measurement": "TGI", "setting": "HS 578T", "value": ">100000", "unit": "nM"}, {"measurement": "TGI", "setting": "BT-549; BT-549", "value": 2720, "unit": "nM"}, {"measurement": "GI50", "setting": "BT-549; Homo sapiens, BT-549", "value": 1220, "unit": "nM"}, {"measurement": "CC50", "setting": "BT-549; Homo sapiens, BT-549, read-out: LC50", "value": 6070, "unit": "nM"}, {"measurement": "GI50", "setting": "MDA-MB-468; Homo sapiens, MDA-MB-468", "value": 430, "unit": "nM"}, {"measurement": "CC50", "setting": "MDA-MB-468; Homo sapiens, MDA-MB-468, read-out: LC50", "value": 7070, "unit": "nM"}, {"measurement": "TGI", "setting": "MDA-MB-468; MDA-MB-468", "value": 1820, "unit": "nM"}, {"measurement": "IC90", "setting": "Hu Topo I", "value": 140000, "unit": "nM"}]}
